Source: US20230085307A1, “PYRIDAZINONE COMPOUND AND HERBICIDE” (NISSAN CHEMICAL CORPORATION, priority 2019, published 2023)

The compounds below were run on lambsquarters (assay: Test Example 4: herbicidal effect by soil treatment (Table 19, symbol O)). Details: amount of applied herbicide 320 g/ha.
Format: in vivo, lambsquarters (Chenopodium album)
Outline: (§1)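 Pre-emergence style soil spray: seeds under ~1.5 cm sterilized diluvial soil received a uniform coat of emulsion diluted to the predetermined herbicide amount. Greenhouse 25–30° C; readout at week three on previously defined criteria.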
With `CCCC(=O)Oc1c(C)nn(C)c(=O)c1-c1c(-c2ccccc2OC)sc2cc(OC)c(Cl)cc12` [5-069] the “O: lambsquarters, herbicidal effect grade” value was 0 (Herbicidal rate of 5% or less (almost no effect)).

The compounds below were run on Japanese bulrush (assay: Test Example 1: herbicidal activity, application before weed generation under submerged conditions (Table 16, symbol B)). Details: amount of applied herbicide 320 g/ha.
Format: in vivo, Japanese bulrush (Schoenoplectus juncoides)
Outline: (§2)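 Submerged Wagner pots (alluvial soil, 4 cm water) sown with weed seeds and planted with 2.5-leaf rice seedlings; emulsifiable concentrate diluted in water applied to water surface on sowing day. Held in greenhouse at 25-30 °C; injury scored 0-5 by herbicidal rate after three weeks.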
For `CCCC(=O)Oc1c(C)nn(C)c(=O)c1-c1c(-c2ccccc2OC)sc2cc(OC)c(Cl)cc12` [5-069], the “Herbicidal effect, B: Japanese bulrush” value was 1 (Herbicidal rate of 5% or more and less than 20%).

What follows are compounds tested on rice flat sedge (assay: Test Example 3: herbicidal effect by foliage application, Wagner pot (Table 18, symbol E)). Details: 320 g/ha.
Format: in vivo, rice flat sedge (Cyperus iria)
Outline: (§3)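 Plants were sown in alluvial soil held under 0.1–0.5 cm standing water and grown 14 days in a greenhouse at 25–30 °C. An emulsifiable formulation, water-diluted to the set dose, was then sprayed onto the foliage, and effects were scored three weeks later using previously defined criteria.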
`CCCC(=O)Oc1c(C)nn(C)c(=O)c1-c1c(-c2ccccc2OC)sc2cc(OC)c(Cl)cc12` [5-069] was tested, and the “herbicidal effect on rice flat sedge (E)” value was 0 (Herbicidal rate of 5% or less (almost no effect)).

The compounds below were run on redroot pigweed (assay: Test Example 4: herbicidal effect by soil treatment (Table 19, symbol N)). Details: amount of applied herbicide 320 g/ha.
Format: in vivo, redroot pigweed (Amaranthus retroflexus)
Outline: as §1
In the case of `CCCC(=O)Oc1c(C)nn(C)c(=O)c1-c1c(-c2ccccc2OC)sc2cc(OC)c(Cl)cc12` [5-069], the “N: redroot pigweed, herbicidal effect grade” value is reported as 2 (Herbicidal rate of 20% or more and less than 40%).

The compounds below were run on barnyard grass (assay: Test Example 4: herbicidal effect by soil treatment (Table 19, symbol H)). Details: amount of applied herbicide 320 g/ha.
Format: in vivo, barnyard grass (Echinochloa crus-galli)
Outline: as §1
`CCCC(=O)Oc1c(C)nn(C)c(=O)c1-c1c(-c2ccccc2OC)sc2cc(OC)c(Cl)cc12` [5-069] was tested, and the “H: barnyard grass, herbicidal effect grade” value was 0 (Herbicidal rate of 5% or less (almost no effect)).

Each compound was assayed on windgrass (assay: Test Example 5: herbicidal effect by foliage application, plastic box (Table 20, symbol L)). Details: foliage application, 320 g/ha, three weeks after application.
Format: in vivo, windgrass (Apera spica-venti)
Outline: (§4)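 Plants were sown into sterilized diluvial soil under about 1.5 cm cover and kept in a greenhouse at 25° C. to 30° C. Fourteen days on, foliage received an even spray of the diluted emulsion. Herbicidal or crop effect was judged three weeks afterwards.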
With `CCCC(=O)Oc1c(C)nn(C)c(=O)c1-c1c(-c2ccccc2OC)sc2cc(OC)c(Cl)cc12` [5-069] the “herbicidal effect on windgrass (L)” value was 2 (Herbicidal rate of 20% or more and less than 40%).

These compounds were tested on windgrass (assay: Test Example 4: herbicidal effect by soil treatment (Table 19, symbol L)). Details: amount of applied herbicide 320 g/ha.
Format: in vivo, windgrass (Apera spica-venti)
Outline: as §1
For `CCCC(=O)Oc1c(C)nn(C)c(=O)c1-c1c(-c2ccccc2OC)sc2cc(OC)c(Cl)cc12` [5-069], the “L: windgrass, herbicidal effect grade” value was 0 (Herbicidal rate of 5% or less (almost no effect)).

The compounds below were run on southern crabgrass (assay: Test Example 5: herbicidal effect by foliage application, plastic box (Table 20, symbol F)). Details: foliage application, 320 g/ha, three weeks after application.
Format: in vivo, southern crabgrass (Digitaria ciliaris)
Outline: as §4
`CCCC(=O)Oc1c(C)nn(C)c(=O)c1-c1c(-c2ccccc2OC)sc2cc(OC)c(Cl)cc12` [5-069] was tested, and the “herbicidal effect on southern crabgrass (F)” value was 4 (Herbicidal rate of 70% or more and less than 90%).

The compounds below were run on late watergrass (assay: Test Example 1: herbicidal activity, application before weed generation under submerged conditions (Table 16, symbol A)). Details: amount of applied herbicide 320 g/ha.
Format: in vivo, late watergrass (Echinochloa oryzicola)
Outline: as §2
For `CCCC(=O)Oc1c(C)nn(C)c(=O)c1-c1c(-c2ccccc2OC)sc2cc(OC)c(Cl)cc12` [5-069], the “Herbicidal effect, A: late watergrass” value was 3 (Herbicidal rate of 40% or more and less than 70%).

The compounds below were run on wild oat (assay: Test Example 4: herbicidal effect by soil treatment (Table 19, symbol I)). Details: amount of applied herbicide 320 g/ha.
Format: in vivo, wild oat (Avena fatua)
Outline: as §1
In the case of `CCCC(=O)Oc1c(C)nn(C)c(=O)c1-c1c(-c2ccccc2OC)sc2cc(OC)c(Cl)cc12` [5-069], the “I: wild oat, herbicidal effect grade” value is reported as 0 (Herbicidal rate of 5% or less (almost no effect)).

The compounds below were run on blackgrass (assay: Test Example 4: herbicidal effect by soil treatment (Table 19, symbol J)). Details: amount of applied herbicide 320 g/ha.
Format: in vivo, blackgrass (Alopecurus myosuroides)
Outline: as §1
In the case of `CCCC(=O)Oc1c(C)nn(C)c(=O)c1-c1c(-c2ccccc2OC)sc2cc(OC)c(Cl)cc12` [5-069], the “J: blackgrass, herbicidal effect grade” value is reported as 0 (Herbicidal rate of 5% or less (almost no effect)).

These compounds were tested on Italian ryegrass (assay: Test Example 5: herbicidal effect by foliage application, plastic box (Table 20, symbol K)). Details: foliage application, 320 g/ha, three weeks after application.
Format: in vivo, Italian ryegrass (Lolium multiflorum)
Outline: as §4
With `CCCC(=O)Oc1c(C)nn(C)c(=O)c1-c1c(-c2ccccc2OC)sc2cc(OC)c(Cl)cc12` [5-069] the “herbicidal effect on Italian ryegrass (K)” value was 0 (Herbicidal rate of 5% or less (almost no effect)).

These compounds were tested on barnyard grass (assay: Test Example 5: herbicidal effect by foliage application, plastic box (Table 20, symbol H)). Details: foliage application, 320 g/ha, three weeks after application.
Format: in vivo, barnyard grass (Echinochloa crus-galli)
Outline: as §4
In the case of `CCCC(=O)Oc1c(C)nn(C)c(=O)c1-c1c(-c2ccccc2OC)sc2cc(OC)c(Cl)cc12` [5-069], the “herbicidal effect on barnyard grass (H)” value is reported as 3 (Herbicidal rate of 40% or more and less than 70%).

What follows are compounds tested on chickweed (assay: Test Example 4: herbicidal effect by soil treatment (Table 19, symbol P)). Details: amount of applied herbicide 320 g/ha.
Format: in vivo, common chickweed (Stellaria media)
Outline: as §1
With `CCCC(=O)Oc1c(C)nn(C)c(=O)c1-c1c(-c2ccccc2OC)sc2cc(OC)c(Cl)cc12` [5-069] the “P: chickweed, herbicidal effect grade” value was 0 (Herbicidal rate of 5% or less (almost no effect)).

The compounds below were run on Italian ryegrass (assay: Test Example 4: herbicidal effect by soil treatment (Table 19, symbol K)). Details: amount of applied herbicide 320 g/ha.
Format: in vivo, Italian ryegrass (Lolium multiflorum)
Outline: as §1
For `CCCC(=O)Oc1c(C)nn(C)c(=O)c1-c1c(-c2ccccc2OC)sc2cc(OC)c(Cl)cc12` [5-069], the “K: Italian ryegrass, herbicidal effect grade” value was 0 (Herbicidal rate of 5% or less (almost no effect)).

What follows are compounds tested on green foxtail (assay: Test Example 4: herbicidal effect by soil treatment (Table 19, symbol G)). Details: amount of applied herbicide 320 g/ha.
Format: in vivo, green foxtail (Setaria viridis)
Outline: as §1
For `CCCC(=O)Oc1c(C)nn(C)c(=O)c1-c1c(-c2ccccc2OC)sc2cc(OC)c(Cl)cc12` [5-069], the “G: green foxtail, herbicidal effect grade” value was 0 (Herbicidal rate of 5% or less (almost no effect)).

Each compound was assayed on oval-leafed pondweed (assay: Test Example 1: herbicidal activity, application before weed generation under submerged conditions (Table 16, symbol C)). Details: amount of applied herbicide 320 g/ha.
Format: in vivo, oval-leafed pondweed (Monochoria vaginalis)
Outline: as §2
With `CCCC(=O)Oc1c(C)nn(C)c(=O)c1-c1c(-c2ccccc2OC)sc2cc(OC)c(Cl)cc12` [5-069] the “Herbicidal effect, C: oval-leafed pondweed” value was 0 (Herbicidal rate of 5% or less (almost no effect)).

The compounds below were run on blackgrass (assay: Test Example 5: herbicidal effect by foliage application, plastic box (Table 20, symbol J)). Details: foliage application, 320 g/ha, three weeks after application.
Format: in vivo, blackgrass (Alopecurus myosuroides)
Outline: as §4
For `CCCC(=O)Oc1c(C)nn(C)c(=O)c1-c1c(-c2ccccc2OC)sc2cc(OC)c(Cl)cc12` [5-069], the “herbicidal effect on blackgrass (J)” value was 0 (Herbicidal rate of 5% or less (almost no effect)).

The compounds below were run on barnyard grass (assay: Test Example 3: herbicidal effect by foliage application, Wagner pot (Table 18, symbol H)). Details: 320 g/ha.
Format: in vivo, barnyard grass (Echinochloa crus-galli)
Outline: as §3
With `CCCC(=O)Oc1c(C)nn(C)c(=O)c1-c1c(-c2ccccc2OC)sc2cc(OC)c(Cl)cc12` [5-069] the “herbicidal effect on barnyard grass (H)” value was 4 (Herbicidal rate of 70% or more and less than 90%).

What follows are compounds tested on wild oat (assay: Test Example 5: herbicidal effect by foliage application, plastic box (Table 20, symbol I)). Details: foliage application, 320 g/ha, three weeks after application.
Format: in vivo, wild oat (Avena fatua)
Outline: as §4
With `CCCC(=O)Oc1c(C)nn(C)c(=O)c1-c1c(-c2ccccc2OC)sc2cc(OC)c(Cl)cc12` [5-069] the “herbicidal effect on wild oat (I)” value was 0 (Herbicidal rate of 5% or less (almost no effect)).

What follows are compounds tested on southern crabgrass (assay: Test Example 4: herbicidal effect by soil treatment (Table 19, symbol F)). Details: amount of applied herbicide 320 g/ha.
Format: in vivo, southern crabgrass (Digitaria ciliaris)
Outline: as §1
In the case of `CCCC(=O)Oc1c(C)nn(C)c(=O)c1-c1c(-c2ccccc2OC)sc2cc(OC)c(Cl)cc12` [5-069], the “F: southern crabgrass, herbicidal effect grade” value is reported as 0 (Herbicidal rate of 5% or less (almost no effect)).

Each compound was assayed on velvetleaf (assay: Test Example 5: herbicidal effect by foliage application, plastic box (Table 20, symbol M)). Details: foliage application, 320 g/ha, three weeks after application.
Format: in vivo, velvetleaf (Abutilon theophrasti)
Outline: as §4
For `CCCC(=O)Oc1c(C)nn(C)c(=O)c1-c1c(-c2ccccc2OC)sc2cc(OC)c(Cl)cc12` [5-069], the “herbicidal effect on velvetleaf (M)” value was 3 (Herbicidal rate of 40% or more and less than 70%).

Each compound was assayed on Chinese sprangletop (assay: Test Example 3: herbicidal effect by foliage application, Wagner pot (Table 18, symbol D)). Details: 320 g/ha.
Format: in vivo, chinese sprangletop (Leptochloa chinensis)
Outline: as §3
For `CCCC(=O)Oc1c(C)nn(C)c(=O)c1-c1c(-c2ccccc2OC)sc2cc(OC)c(Cl)cc12` [5-069], the “herbicidal effect on Chinese sprangletop (D)” value was 0 (Herbicidal rate of 5% or less (almost no effect)).

Each compound was assayed on lambsquarters (assay: Test Example 5: herbicidal effect by foliage application, plastic box (Table 20, symbol O)). Details: foliage application, 320 g/ha, three weeks after application.
Format: in vivo, lambsquarters (Chenopodium album)
Outline: as §4
`CCCC(=O)Oc1c(C)nn(C)c(=O)c1-c1c(-c2ccccc2OC)sc2cc(OC)c(Cl)cc12` [5-069] was tested, and the “herbicidal effect on lambsquarters (O)” value was 3 (Herbicidal rate of 40% or more and less than 70%).

The compounds below were run on green foxtail (assay: Test Example 5: herbicidal effect by foliage application, plastic box (Table 20, symbol G)). Details: foliage application, 320 g/ha, three weeks after application.
Format: in vivo, green foxtail (Setaria viridis)
Outline: as §4
With `CCCC(=O)Oc1c(C)nn(C)c(=O)c1-c1c(-c2ccccc2OC)sc2cc(OC)c(Cl)cc12` [5-069] the “herbicidal effect on green foxtail (G)” value was 3 (Herbicidal rate of 40% or more and less than 70%).

What follows are compounds tested on persian speedwell (assay: Test Example 5: herbicidal effect by foliage application, plastic box (Table 20, symbol R)). Details: foliage application, 320 g/ha, three weeks after application.
Format: in vivo, Persian speedwell (Veronica persica)
Outline: as §4
`CCCC(=O)Oc1c(C)nn(C)c(=O)c1-c1c(-c2ccccc2OC)sc2cc(OC)c(Cl)cc12` [5-069] was tested, and the “herbicidal effect on persian speedwell (R)” value was 0 (Herbicidal rate of 5% or less (almost no effect)).

Each compound was assayed on velvetleaf (assay: Test Example 4: herbicidal effect by soil treatment (Table 19, symbol M)). Details: amount of applied herbicide 320 g/ha.
Format: in vivo, velvetleaf (Abutilon theophrasti)
Outline: as §1
`CCCC(=O)Oc1c(C)nn(C)c(=O)c1-c1c(-c2ccccc2OC)sc2cc(OC)c(Cl)cc12` [5-069] was tested, and the “M: velvetleaf, herbicidal effect grade” value was 0 (Herbicidal rate of 5% or less (almost no effect)).

The compounds below were run on persian speedwell (assay: Test Example 4: herbicidal effect by soil treatment (Table 19, symbol R)). Details: amount of applied herbicide 320 g/ha.
Format: in vivo, Persian speedwell (Veronica persica)
Outline: as §1
For `CCCC(=O)Oc1c(C)nn(C)c(=O)c1-c1c(-c2ccccc2OC)sc2cc(OC)c(Cl)cc12` [5-069], the “R: persian speedwell, herbicidal effect grade” value was 0 (Herbicidal rate of 5% or less (almost no effect)).
